PubChem BioAssay (NCI)
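How tested: cells in 96-well plates exposed to compound for 48 hours at five concentrations. Abbreviation: GI50, concentration required for 50% inhibition of growth. TGI: concentration producing complete growth inhibition.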

Legend:
Test in all cases: NCI tumour cell line growth inhibition, 48 h
K-562 leukemia = tested on: K-562 leukemia
LOX IMVI melanoma = tested on: LOX IMVI melanoma
HOP-92 NSCLC = tested on: HOP-92 NSCLC
SW-620 colon = tested on: SW-620 colon
SK-MEL-5 melanoma = tested on: SK-MEL-5 melanoma
A498 renal = tested on: A498 renal
CAKI-1 renal = tested on: CAKI-1 renal
SF-295 CNS = tested on: SF-295 CNS
OVCAR-8 ovarian = tested on: OVCAR-8 ovarian
PC-3 prostate = tested on: PC-3 prostate

| SMILES | TGI (K-562 leukemia) | TGI (LOX IMVI melanoma) | TGI (HOP-92 NSCLC) | TGI (SW-620 colon) | TGI (SK-MEL-5 melanoma) | TGI (A498 renal) | TGI (CAKI-1 renal) | TGI (SF-295 CNS) | TGI (OVCAR-8 ovarian) | GI50 (PC-3 prostate) | TGI (PC-3 prostate) | GI50 (K-562 leukemia) | GI50 (LOX IMVI melanoma) | GI50 (SW-620 colon) | GI50 (SK-MEL-5 melanoma) | GI50 (A498 renal) | GI50 (CAKI-1 renal) | GI50 (SF-295 CNS) | GI50 (OVCAR-8 ovarian) | GI50 (HOP-92 NSCLC) |
| --- | --- | --- | --- | --- | --- | --- | --- | --- | --- | --- | --- | --- | --- | --- | --- | --- | --- | --- | --- | --- |
| O=C(C(=O)c1cc2ccccc2[nH]1)c1cc2ccccc2[nH]1 | > 347 µM | > 347 µM | > 347 µM | > 347 µM | > 347 µM | > 347 µM | > 347 µM | > 347 µM | > 347 µM |  |  |  |  |  |  |  |  |  |  |  |
| NCCSSCc1ccccc1CSSCCN | 43.4 µM | 41.8 µM | > 100 µM | 45.8 µM | > 100 µM | > 100 µM | > 100 µM | > 100 µM | > 100 µM |  |  |  |  |  |  |  |  |  |  |  |
| O=C(NCCCCN1CCOCC1)c1cc2ccccc2o1 | > 100 µM | > 100 µM |  | > 100 µM | > 100 µM | > 100 µM | > 100 µM | > 100 µM | > 100 µM | > 100 µM | > 100 µM | > 100 µM | > 100 µM | > 100 µM | > 100 µM | > 100 µM | > 100 µM | > 100 µM | > 100 µM |  |
| COc1cc(/C=C2\CC3C4CC=C5C[C@@H](OC(C)=O)CC[C@]5(C)C4CC[C@]3(C)C2=O)ccc1OCCN1CCCCC1 (some centres not stated) | 3.31 µM | 3.31 µM |  | 7.32 µM | 3.08 µM | 5.07 µM | 7.64 µM | 5.08 µM | 28.2 µM | 3.51 µM | 11.2 µM | 1.23 µM | 1.26 µM | 3.18 µM | 1.71 µM | 1.71 µM | 2.65 µM | 2.41 µM | 4.27 µM |  |
| NC(=O)NNC(=O)CCn1[nH]c(=O)c(Cl)c(Cl)c1=O | > 100 µM | > 100 µM | > 100 µM | > 100 µM | > 100 µM | > 100 µM | > 100 µM | > 100 µM | > 100 µM |  |  |  |  |  |  |  |  |  |  |  |
| O=C(/C=C\c1ccccc1O)c1ccc(O)cc1O | > 100 µM | > 100 µM | > 100 µM | 22.7 µM | > 100 µM | > 100 µM | > 100 µM | > 100 µM | > 100 µM |  |  |  |  |  |  |  |  |  |  |  |
| Cc1c(C)n(CCCN2CCN(C)CC2)c2ccc(Oc3cccc(C(=O)N4CCN(CCc5ccc(F)cc5)CC4)c3)cc12 |  | 3.19 µM |  | 3.28 µM | 3.08 µM |  | 3.46 µM | 3.33 µM |  | 1.06 µM | 2.61 µM |  | 1.75 µM | 1.77 µM | 1.71 µM |  | 1.77 µM | 1.85 µM |  |  |
| COc1ccc(Nc2nc3cc(N)cc(N)c3nc2-c2ccccc2)cc1 | > 100 µM | 29.8 µM | 52.6 µM | 37 µM | 28.6 µM |  | > 100 µM | > 100 µM | 30.6 µM | 20.9 µM | 47.6 µM | 29.8 µM | 16.1 µM | 22.5 µM | 15.3 µM |  | 35.2 µM | 31.9 µM | 13.9 µM | 19.9 µM |
| Cc1ccc(C)c(N2C(=O)C(=O)C(c3nc4ccccc4s3)/C(=N/N)C2=O)c1 (configuration not stated) | > 100 µM | > 100 µM | > 100 µM | > 100 µM | > 100 µM | > 22.6 µM | > 100 µM | > 33.5 µM | > 100 µM |  |  |  |  |  |  |  |  |  |  |  |
| Cc1cc2nc(NCCN)n(Cc3ccc(F)c(Cl)c3)c2cc1C | 6.97 µM | 14.5 µM | 14.3 µM | 10.8 µM | 27.6 µM |  | 25.4 µM | 26.1 µM | 33.1 µM | 10 µM | 22.4 µM | 2.57 µM | 3.73 µM | 3.31 µM | 14.4 µM |  | 12.7 µM | 12.8 µM | 17 µM | 2.35 µM |
| C=CSCCC(N)C(=O)O (configuration not stated) | > 100 µM | > 100 µM | > 100 µM | > 100 µM | > 100 µM | > 100 µM | > 100 µM | > 100 µM | > 100 µM |  |  |  |  |  |  |  |  |  |  |  |
| COC1CCC(OS(C)(=O)=O)C(CO)O1 (configuration not stated) | > 100 µM | > 100 µM | > 100 µM | > 100 µM |  |  |  | > 100 µM | > 100 µM |  |  |  |  |  |  |  |  |  |  |  |
| C=CCNC(=O)NCCCCC(NC(C)=O)C(=O)NCc1ccccc1 (configuration not stated) | > 100 µM | > 100 µM | > 100 µM | > 100 µM | > 100 µM | > 100 µM | > 100 µM | > 100 µM | > 100 µM |  |  |  |  |  |  |  |  |  |  |  |
| CC1(C)OC2C(CCP(=O)(O)O)OC(c3nc(C(N)=O)cs3)C2O1 (configuration not stated) | > 100 µM | > 100 µM | > 100 µM | > 100 µM |  | > 100 µM | > 100 µM |  | > 100 µM |  |  |  |  |  |  |  |  |  |  |  |
| O=c1c2ccccc2sc2c(NCCCNCCO)nc3ccccc3c12 |  | 2.82 µM | 5.67 µM | 2.74 µM | 3.03 µM |  | 3.2 µM | 4.11 µM | 4.46 µM | 1.49 µM | 2.98 µM |  | 1.28 µM | 1.31 µM | 1.64 µM |  | 1.6 µM | 1.83 µM | 1.97 µM | 0.922 µM |
| C=C(CCCCC)CN1CCCC1C(C)=O (configuration not stated) | 51.5 µM | 65.3 µM | 63.8 µM | > 100 µM | 33.2 µM | > 93.5 µM | > 92.3 µM | > 94.7 µM | > 95.1 µM |  |  |  |  |  |  |  |  |  |  |  |
| C=C(C)[C@H]1CC[C@@]2(C)C(C1)[C@H](C)CC[C@@H]2O (some centres not stated) | > 100 µM | > 100 µM | > 100 µM | > 100 µM | > 100 µM | > 100 µM | > 100 µM | > 100 µM | > 100 µM |  |  |  |  |  |  |  |  |  |  |  |
| COC(=O)c1cc2c(=O)n(C)c3ccccc3n2c1C(=O)OC | > 100 µM | > 100 µM | > 100 µM | > 100 µM | > 100 µM | > 100 µM | > 100 µM | > 100 µM | > 100 µM |  |  |  |  |  |  |  |  |  |  |  |
| CC(=O)Nc1ccc(/C=C/C(=O)c2sc(-c3cccnc3)nc2C)cc1 | > 100 µM | > 100 µM | > 100 µM | > 100 µM | > 100 µM | > 100 µM | > 100 µM | > 100 µM | > 100 µM |  |  |  |  |  |  |  |  |  |  |  |
